Assay results published in patent publication US10870647B2, “Imidazopyridine derivative, method for preparing same, and pharmaceutical composition containing same as active ingredient for preventing or treating cancer” (DAEGU-GYEONGBUK MEDICAL INNOVATION FOUNDATION, priority 2016, dated 2020).
Like-named read-outs stand apart in the source and are kept apart here.

What was measured:
Test in all cases: Kinase selectivity, scanMAX Kinase assay panel (DiscoverX), % control at 1 uM
Type in all cases: binding
[1] = target: T1, scanMAX Kinase assay panel (Homo sapiens, UniProt P00519, F317L); settings: 1 uM, read-out: Percent Control (%)
T1 construct: purchased DiscoverX
Experimental: (§1) The following experiment was performed to evaluate the inhibitory activity of the compound of the present invention on more enzymes.
(§2) Particularly, among the compounds of the present invention, the compounds of Example 1, Example 12 and Example 78 were selected and assigned to DiscoverX to measure the kinase selectivity. The experiment was performed by using scanMAX™ Kinase assay panel.
(§3) At this time, the concentration of the drug to be treated to the enzyme was adjusted to 1 uM in DMSO, and the control percentage (% control) was determined according to the following Equation 1. [Example Compound−Positive Control/Negative Control−Positive Control]×100 [Equation 1]
(§4) The enzyme selectivity of the compound of the present invention was judged to be active for the enzyme if the % control was <35 (i.e. less than 35%) for each enzyme.

[2] = target: T2, scanMAX Kinase assay panel (Homo sapiens, UniProt P15735); settings: PHKG2; 1 uM; read-out: Percent Control (%)
T2 construct: purchased DiscoverX
T2 sequence (P15735 1-406): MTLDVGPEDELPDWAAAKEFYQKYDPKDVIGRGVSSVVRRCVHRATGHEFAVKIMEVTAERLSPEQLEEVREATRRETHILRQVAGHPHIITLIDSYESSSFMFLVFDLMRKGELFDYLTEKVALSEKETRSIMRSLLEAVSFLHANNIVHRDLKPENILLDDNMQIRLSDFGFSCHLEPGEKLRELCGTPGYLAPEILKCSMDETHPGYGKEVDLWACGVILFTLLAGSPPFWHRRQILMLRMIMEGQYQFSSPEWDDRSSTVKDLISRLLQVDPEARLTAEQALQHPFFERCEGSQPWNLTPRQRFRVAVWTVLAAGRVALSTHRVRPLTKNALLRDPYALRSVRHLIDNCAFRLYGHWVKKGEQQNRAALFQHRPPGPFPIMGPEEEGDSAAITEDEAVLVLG
Experimental: as §1, §2, §3, §4

[3] = target: T3, scanMAX Kinase assay panel (Homo sapiens, UniProt Q00537); settings: PCTK2; 1 uM; read-out: Percent Control (%)
T3 construct: purchased DiscoverX
Experimental: as §1, §2, §3, §4

[4] = target: T4, scanMAX Kinase assay panel (Homo sapiens, UniProt Q8WXR4); settings: MYO3B; 1 uM; read-out: Percent Control (%)
T4 construct: purchased DiscoverX
T4 sequence (Q8WXR4 1-1341): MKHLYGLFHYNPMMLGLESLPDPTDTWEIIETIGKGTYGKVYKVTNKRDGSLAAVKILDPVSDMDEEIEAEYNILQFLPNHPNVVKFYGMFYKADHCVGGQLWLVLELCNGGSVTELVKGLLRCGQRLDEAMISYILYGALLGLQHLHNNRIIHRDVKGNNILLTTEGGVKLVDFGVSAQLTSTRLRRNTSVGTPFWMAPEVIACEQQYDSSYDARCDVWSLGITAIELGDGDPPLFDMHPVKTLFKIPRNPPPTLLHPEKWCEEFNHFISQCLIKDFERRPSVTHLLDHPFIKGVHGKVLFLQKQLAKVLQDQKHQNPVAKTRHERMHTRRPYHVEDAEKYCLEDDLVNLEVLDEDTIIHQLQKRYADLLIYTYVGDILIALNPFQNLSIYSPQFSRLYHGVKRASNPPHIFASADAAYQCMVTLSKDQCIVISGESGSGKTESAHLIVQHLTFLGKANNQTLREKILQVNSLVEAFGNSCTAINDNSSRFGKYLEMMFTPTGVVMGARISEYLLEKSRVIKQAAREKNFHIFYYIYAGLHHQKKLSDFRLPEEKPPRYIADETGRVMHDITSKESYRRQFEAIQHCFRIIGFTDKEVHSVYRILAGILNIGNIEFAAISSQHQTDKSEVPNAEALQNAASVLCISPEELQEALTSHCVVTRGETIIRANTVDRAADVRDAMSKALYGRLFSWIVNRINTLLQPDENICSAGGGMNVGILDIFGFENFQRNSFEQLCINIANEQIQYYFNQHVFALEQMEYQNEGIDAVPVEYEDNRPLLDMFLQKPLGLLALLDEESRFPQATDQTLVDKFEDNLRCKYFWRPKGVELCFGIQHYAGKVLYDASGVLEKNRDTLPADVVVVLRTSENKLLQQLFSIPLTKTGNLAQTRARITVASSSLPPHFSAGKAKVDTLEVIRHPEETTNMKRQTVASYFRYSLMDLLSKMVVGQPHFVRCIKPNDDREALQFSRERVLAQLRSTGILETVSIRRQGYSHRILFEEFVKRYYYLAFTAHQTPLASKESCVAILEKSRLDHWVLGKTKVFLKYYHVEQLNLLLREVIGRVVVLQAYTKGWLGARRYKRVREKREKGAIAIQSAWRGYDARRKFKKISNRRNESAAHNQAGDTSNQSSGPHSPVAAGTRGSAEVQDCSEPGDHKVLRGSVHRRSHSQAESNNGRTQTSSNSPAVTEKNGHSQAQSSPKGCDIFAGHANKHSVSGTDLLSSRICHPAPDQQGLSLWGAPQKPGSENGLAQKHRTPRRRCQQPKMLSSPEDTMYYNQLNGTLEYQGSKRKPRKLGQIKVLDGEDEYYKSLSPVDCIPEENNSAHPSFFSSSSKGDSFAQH
Experimental: as §1, §2, §3, §4

[5] = target: T5, scanMAX Kinase assay panel (Homo sapiens, UniProt Q9NY57); settings: YANK2; 1 uM; read-out: Percent Control (%)
T5 construct: purchased DiscoverX
Experimental: as §1, §2, §3, §4

T1 sequence (P00519 whole entry F317L): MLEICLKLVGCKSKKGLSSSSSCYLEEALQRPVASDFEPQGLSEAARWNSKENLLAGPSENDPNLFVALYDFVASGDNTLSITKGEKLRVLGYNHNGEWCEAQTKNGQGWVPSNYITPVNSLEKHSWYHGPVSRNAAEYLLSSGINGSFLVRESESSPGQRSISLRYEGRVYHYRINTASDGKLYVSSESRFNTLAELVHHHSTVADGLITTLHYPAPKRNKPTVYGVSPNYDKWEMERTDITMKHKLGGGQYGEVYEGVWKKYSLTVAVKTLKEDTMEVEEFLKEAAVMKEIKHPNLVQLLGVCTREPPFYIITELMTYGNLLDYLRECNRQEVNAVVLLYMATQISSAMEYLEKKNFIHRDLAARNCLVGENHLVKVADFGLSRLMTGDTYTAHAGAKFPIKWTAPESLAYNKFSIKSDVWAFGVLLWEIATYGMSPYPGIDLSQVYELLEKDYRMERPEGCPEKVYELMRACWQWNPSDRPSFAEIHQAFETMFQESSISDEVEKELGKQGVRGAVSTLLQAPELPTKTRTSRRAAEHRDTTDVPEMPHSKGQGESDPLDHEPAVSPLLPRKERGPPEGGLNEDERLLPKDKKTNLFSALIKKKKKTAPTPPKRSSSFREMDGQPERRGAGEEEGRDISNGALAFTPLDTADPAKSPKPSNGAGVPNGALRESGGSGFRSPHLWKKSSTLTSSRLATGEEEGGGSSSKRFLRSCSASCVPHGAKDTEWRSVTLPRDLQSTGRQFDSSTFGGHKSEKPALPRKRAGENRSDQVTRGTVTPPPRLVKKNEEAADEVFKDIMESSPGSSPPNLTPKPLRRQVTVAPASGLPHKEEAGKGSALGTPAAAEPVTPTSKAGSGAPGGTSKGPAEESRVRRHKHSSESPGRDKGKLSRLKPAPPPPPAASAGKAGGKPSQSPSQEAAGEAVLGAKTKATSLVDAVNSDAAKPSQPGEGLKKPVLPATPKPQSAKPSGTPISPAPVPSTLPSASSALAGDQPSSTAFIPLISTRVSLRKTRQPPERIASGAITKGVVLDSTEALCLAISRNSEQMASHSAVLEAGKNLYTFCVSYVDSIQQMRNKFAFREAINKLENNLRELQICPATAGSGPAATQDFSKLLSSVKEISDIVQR
T5 sequence (Q9NY57 whole entry): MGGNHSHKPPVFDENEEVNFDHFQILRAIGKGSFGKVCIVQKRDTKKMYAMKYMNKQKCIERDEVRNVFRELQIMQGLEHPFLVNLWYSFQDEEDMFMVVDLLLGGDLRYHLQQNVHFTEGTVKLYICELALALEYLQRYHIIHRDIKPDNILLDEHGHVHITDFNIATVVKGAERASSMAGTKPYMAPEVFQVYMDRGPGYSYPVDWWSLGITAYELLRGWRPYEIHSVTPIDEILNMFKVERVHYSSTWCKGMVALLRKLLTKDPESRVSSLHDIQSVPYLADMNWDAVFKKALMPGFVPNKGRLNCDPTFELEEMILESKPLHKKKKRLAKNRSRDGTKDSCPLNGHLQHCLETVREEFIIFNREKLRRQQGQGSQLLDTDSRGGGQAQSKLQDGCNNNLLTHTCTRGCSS
T3 sequence (Q00537 whole entry): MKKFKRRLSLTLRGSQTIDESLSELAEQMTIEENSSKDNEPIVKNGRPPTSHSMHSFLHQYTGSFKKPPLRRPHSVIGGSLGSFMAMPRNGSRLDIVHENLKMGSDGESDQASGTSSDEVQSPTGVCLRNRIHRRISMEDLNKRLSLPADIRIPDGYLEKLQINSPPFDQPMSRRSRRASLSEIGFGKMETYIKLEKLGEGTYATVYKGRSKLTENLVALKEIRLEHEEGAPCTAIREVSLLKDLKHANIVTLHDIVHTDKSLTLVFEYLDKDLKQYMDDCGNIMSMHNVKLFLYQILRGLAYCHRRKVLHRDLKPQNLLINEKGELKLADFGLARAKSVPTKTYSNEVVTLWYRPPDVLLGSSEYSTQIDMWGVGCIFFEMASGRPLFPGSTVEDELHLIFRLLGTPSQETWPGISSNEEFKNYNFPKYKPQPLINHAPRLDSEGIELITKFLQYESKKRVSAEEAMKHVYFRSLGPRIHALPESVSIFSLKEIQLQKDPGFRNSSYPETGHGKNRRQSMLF

What does the source list for `Cc1ccc(C(=O)Nc2ccc(CN3CCN(C)CC3)c(C(F)(F)F)c2)cc1C#Cc1cnc2c(Nc3cnn(C)c3)cccn12` [Example 1, 4-methyl-3-((8-((1-methyl-1H-pyrazol-4-yl)amino)imidazo[1,2-a]pyridin-3-yl)ethynyl)-N-(4-((4-methylpiperazin-1-yl)methyl)-3-(trifluoromethyl)phenyl)benzamide]?
remaining binding at 1 µM ([1]; ABL1 (F317L)-nonphosphorylated): 9%; remaining binding at 1 µM ([1]; ABL1 (F317L)-phosphorylated): 2%; remaining binding at 1 µM [2]: 72%; remaining binding at 1 µM [3]: 19%; remaining binding at 1 µM [4]: 35%; remaining binding at 1 µM [5]: 100%

What does the source list for `Cc1cn(-c2cc(NC(=O)c3ccc(C)c(C#Cc4cnc5c(Nc6cnn(C)c6)cccn45)c3)cc(C(F)(F)F)c2)cn1` [Example 12, 4-methyl-N-(3-(4-methyl-1H-imidazol-1-yl)-5-(trifluoromethyl)phenyl)-3-((8-((1-methyl-1H-pyrazol-4-yl)amino)imidazo[1,2-a]pyridin-3-yl)ethynyl)benzamide]?
remaining binding at 1 µM ([1]; ABL1 (F317L)-nonphosphorylated): 3%; remaining binding at 1 µM ([1]; ABL1 (F317L)-phosphorylated): 6%; remaining binding at 1 µM [2]: 89%; remaining binding at 1 µM [3]: 98%; remaining binding at 1 µM [4]: 81%; remaining binding at 1 µM [5]: 99%

Which results are given for `Cc1ccc(NC(=O)C2(C(=O)Nc3ccc(F)cc3)CC2)cc1C#Cc1cnc2c(Nc3cnn(C(C)C)c3)cccn12` [Example 78]?
remaining binding at 1 µM ([1]; ABL1 (F317L)-nonphosphorylated): 16%; remaining binding at 1 µM ([1]; ABL1 (F317L)-phosphorylated): 85%; remaining binding at 1 µM [2]: 100%; remaining binding at 1 µM [3]: 100%; remaining binding at 1 µM [4]: 92%; remaining binding at 1 µM [5]: 100%
